Experimental data published in patent publication US4962155A (City of Hope, priority 1987, dated 1990).
Where two headings read alike, the source gives them in different places. Values belong to the compound of their own block, whether it stands above or below them.

Experiments:
[1] = biological target: T1, human insulin receptor kinase (Homo sapiens, UniProt P06213); experiment: Kinase assay: phosphorylation of exogenous src-related peptide by purified insulin receptor; assay type: biochemical; conditions: for activation of the insulin receptor kinase over the control: 1 μM basic protein or polyamine, preincubated 25° C. 1 hour, FIG. 1; for reactivation of receptor preparations that lost kinase activity or insulin dependency: aged preparations stored at -70° C.; for concentrations at which kinase activity is stimulated: dose response
T1 construct: from tissue; host or cells: human placenta (Triton X-100 solubilized membranes; wheat germ agglutinin and insulin-Sepharose chromatography)
Description: The substrate used is a synthetic peptide (src-related peptide) which resembles the amino acid sequence around the site of phosphorylation of the tyrosine residue in the Rous sarcoma virus transforming protein, pp60^src, with the sequence ([…], Casnellie, J. E., et al., Proc. Natl. Acad. Sci. USA 79:282 (1982).
The phosphorylation assays were carried out at 25° C. for 40 minutes in 30 ul of 50 mM Tris-HCl buffer (pH 7.4) containing 1 mM of the src-related peptide, 2 mM MnCl2, 15 mM MgCl2, 0.1% Triton X-100, and 40 μM [γ-^32 ]ATP (12,000 cpm/pmole). The reaction was terminated by adding 50 μl of 5% trichloroacetic acid (TCA) and 20 μl of bovine serum albumin (BSA) (10 mg/ml), the resulting solution was then incubated at 0° C. for 30 minutes, and the proteins were precipitated by centrifugation. Aliquots (35 μl) of the resulting supernatant were spotted on phosphocellulose paper (Whatman, P-81). The papers were extensively washed in 75 mM phosphoric acid. Duplicates of the papers were prepared from each reaction mixture and ^32 P incorporated into the src-related peptide was counted using a liquid scintillation counter.

insulin receptor kinase = conditions: literature, cited from earlier work
[2] = test system: β subunit of the insulin receptor and calmodulin; conditions: rat hepatocyte insulin receptor preparations, absence of insulin; literature; cited from earlier work
[3] = biological target: T2, β and α subunits of the insulin receptor (Homo sapiens, UniProt P06213); experiment: Phosphoamino acid analysis of phosphorylated β and α subunits by paper electrophoresis; assay type: biochemical
T2 construct: from tissue; host or cells: human placenta (Triton X-100 solubilized membranes; wheat germ agglutinin and insulin-Sepharose chromatography)
Description: Chem 254:1206 (1984), and hydrolyzing the peptides in 2N HCl for 2 hours at 110° C. The materials were then analyzed by paper electrophoresis (pH 3.5, 2000 V, 1 hour) and autoradiography.
Lanes 1-4 of FIG. 4B contain amounts of hydrolysates equal to 50% of the starting materials from the FIG. 4A gel. […] Other radioactive samples were electrophoresed together with these three phosphoamino acids. Ninhydrin spots for those are not shown. X indicates the origin of the samples.

[4] = biological target: T3, insulin receptor β subunit (Homo sapiens, UniProt P06213); experiment: Phosphorylation (autophosphorylation) of insulin receptor subunits, SDS-PAGE and autoradiography; assay type: biochemical
T3 construct: from tissue; host or cells: human placenta (Triton X-100 solubilized membranes; wheat germ agglutinin and insulin-Sepharose chromatography)
Description: The β subunit of the purified receptor was phosphorylated in the same manner as described above for the exogenous substrate phosphorylation. The reaction was terminated by adding 3-times concentrated Laemmli's sample buffer followed by boiling for 5 minutes. SDS-polyacrylamide gel electrophoresis was then performed under reducing conditions as described by Laemmli, U. K., Nature 227:680 (1970). The gels were stained with silver, dried, and autoradiographed.
After the kinase reaction was terminated by adding TCA and BSA as described in the above procedures, the proteins containing the insulin receptor were precipitated by centrifugation. The precipitated proteins were then subjected to SDS polyacrylamide gel electrophoresis (7.5% gel) under reducing conditions. The gels were stained with silver, dried, and autoradiographed for 30 hours using a Kodak XAR-5 film and an intensifying screen.
The insulin receptor was then phosphorylated according to the procedures described above. After the phosphorylation, the receptors were analyzed by SDS polyacrylamide gel electrophoresis (10% gel) under non-reducing conditions. The gel was dried and autoradiographed for 45 minutes at -70° C. by exposing the gel to a Kodak XAR-5 film with an intensifying screen.

Kinase activity ([1]; preincubation with 0.1 mM DTT): 0.059 pmol/min | Kinase activity ([1]; preincubation with 0.5 mM DTT): 0.083 pmol/min | fold induction at 100 µM ([1]; read-out: Kinase Activity -fold, preincubation with 0.1 mM DTT, relative to no addition): 9.8 | fold induction at 500 µM ([1]; read-out: Kinase Activity -fold, preincubation with 0.5 mM DTT, relative to no addition): 13.8
Compound: O[C@H](CS)[C@H](O)CS (racemic) [DTT, dithiothreitol, reference compound]
activation of the insulin receptor kinase (insulin receptor kinase): activate the insulin receptor kinase | activation of the insulin receptor kinase (insulin receptor kinase; listed as dithiothreitol (DTT)): activates the insulin receptor kinase

Compound: OO [H2 O2, hydrogen peroxide]
activation of the insulin receptor kinase (insulin receptor kinase): activate the insulin receptor kinase

Compound: [Na+].[Na+].[Na+].[O]=[V]([O-])([O-])[O-] [vanadate, sodium orthovanadate]
activation of the insulin receptor kinase (insulin receptor kinase): activate the insulin receptor kinase

Compound: concanavalin A
activation of the insulin receptor kinase (insulin receptor kinase): activate the insulin receptor kinase

Compound: histone Hf2b [reference compound]
stimulation of phosphorylation of the β subunit of the insulin receptor (and calmodulin) [2]: appeared to stimulate the phosphorylation of both the β subunit of the insulin receptor and calmodulin

Compound: insulin
activation of the insulin receptor kinase (insulin receptor kinase): activate the insulin receptor kinase

Compound: poly L-arginine
stimulation of phosphorylation of the β subunit of the insulin receptor (and calmodulin) [2]: effective to stimulate the phosphorylation of the β subunit of the insulin receptor | effect on kinase activity in dose response ([1]; all concentrations examined, FIG. 2): inhibited the kinase activity of the receptor at any of the concentrations examined

Compound: poly L-lysine
β subunit phosphorylation, radioactivity of hydrolysate ([3]; 0.25 μM poly L-lysine, 20% of the original material, FIG. 4B lane 6): 1700 cpm | α subunit phosphorylation, radioactivity of hydrolysate ([3]; 0.25 μM poly L-lysine, hydrolysate equal to 50% of starting material, FIG. 4B lane 4): 1000 cpm | β subunit phosphorylation, radioactivity of hydrolysate ([3]; 1 μM insulin or 0.25 μM poly L-lysine, hydrolysate equal to 50% of starting material, FIG. 4B): 4400 cpm | phosphoamino acid composition of phosphorylated β and α subunits ([3]; FIG. 4B): tyrosine was found to be a major amino acid whose phosphorylation was stimulated | stimulation of phosphorylation of the β subunit of the insulin receptor (and calmodulin) [2]: appeared to stimulate the phosphorylation of both the β subunit of the insulin receptor and calmodulin | kinetic analysis (Vmax, KM), Lineweaver-Burk plots ([1]; 0.24 μM poly L-lysine, varying src-related peptide, FIGS. 6B, 6C): increasing Vmax without significantly changing KM | activation of the insulin receptor kinase over the control [1]: approximately 5 fold | stimulative effect on kinase activity ([1]; 100 μM poly L-lysine, FIG. 3A): can no longer be seen | reactivation of receptor preparations that lost kinase activity or insulin dependency [1]: can activate certain old insulin receptor preparations | reactivation of receptor preparations that lost kinase activity or insulin dependency ([1]; listed as Poly L-lysine): able to restore the kinase activity of insulin receptor preparation that have lost some, but not all, kinase activity | concentrations at which kinase activity is stimulated ([1]; FIG. 2): 0.1 to 1.0 µM | kinase activation compared with activation by insulin ([1]; optimum poly L-lysine concentrations vs 1 μM insulin, FIG. 3A): much greater than the kinase activation by insulin | Kinase activity ([1]; preincubation with 0.24 μM PLL): 0.234 pmol/min | Kinase Activity -fold ([1]; preincubation with 0.24 μM PLL, relative to no addition): 39 fold | Kinase activity ([1]; receptor preparation A, stored 36 Mo. at -70° C., 1 μM insulin or 0.24 μM poly L-lysine): 0.002 pmol/min | Kinase activity ([1]; receptor preparation B, stored 28 Mo. at -70° C., 1 μM insulin or 0.24 μM poly L-lysine): 0.174 pmol/min | Kinase activity ([1]; receptor preparation C, stored 15 Mo. at -70° C., 1 μM insulin or 0.24 μM poly L-lysine): 0.229 pmol/min | Kinase activity ([1]; receptor preparation D, stored 3 Mo. at -70° C., 1 μM insulin or 0.24 μM poly L-lysine): 2.30 pmol/min | Kinase activity ([1]; receptor preparation E, stored <3 Days, 1 μM insulin or 0.24 μM poly L-lysine): 1.13 pmol/min | kinase activity after poly L-lysine treatment ([1]; receptor preparations older than 36 months (data not shown)): no kinase activity | phosphorylation of insulin receptor subunits ([4]; 0.25 μM poly L-lysine, non-reducing SDS-PAGE, FIG. 4A lane 3): stimulates phosphorylation of α and β1 subunits in addition to the β subunit | stimulation of β subunit autophosphorylation compared with insulin ([4]; 0.001-10 μM poly L-lysine, with or without 1 μM insulin, FIG. 3B): greater than that of insulin

Compound: poly L-ornithine
stimulation of phosphorylation of the β subunit of the insulin receptor (and calmodulin) [2]: effective to stimulate the phosphorylation of the β subunit of the insulin receptor | activation of the insulin receptor kinase over the control [1]: approximately 4 fold | concentrations at which kinase activity is stimulated ([1]; FIG. 2): 0.1 to 1.0 µM

Compound: protamine sulfate
stimulation of phosphorylation of the β subunit of the insulin receptor (and calmodulin) [2]: appeared to stimulate the phosphorylation of both the β subunit of the insulin receptor and calmodulin | stimulatory effect on kinase activity relative to basal ([1]; 10 μM, FIG. 2): approximately two-fold
